Experimental data as given in patent publication US20230241226A1, “COMPOUNDS FOR TARGETED DEGRADATION OF CARRIER PROTEINS AND USES THEREOF” (CeMM - Forschungszentrum für Molekulare Medizin GmbH, priority 2019, published 2023).

Legend:
dTAG-HA SLC38A9 = target: T1, dTAG-HA SLC38A9 (Homo sapiens, UniProt Q8NBW4+Q96SW2); assay: Targeted degradation of dTAG-tagged SLC38A9 (western blot); format: cell-based
T1 construct: expressed in transfected cells
Protocol: (A) HAP1 cells expressing dTAG-HA SLC38A9, 38A2, or 38A1 were treated with 0.5 µM dTAG13 for 16, 24 or 48 hours.
SLC1A5, SLC2A1, SLC2A3, SLC16A1, SLC38A1, SLC38A2 were obtained as gateway-compatible pENTR/pDONR vectors from the Harvard PlasmID Repository. SLC39A7 was obtained from Dharmacon, GE Healthcare. The following vectors were synthesized by Genescript: SLC4A4, SLC7A3, SLC38A9, SLC25A1, SLC9A1, SLC9A2, SLC9A3, SLC9A4, SLC9A5, SLC9A6, SLC9A7, SLC9A8, and SLC9B2. SLC30A9, SLC33A1, SLC35B2, SLC25A26, and MTCH2 were a gift from the RESOLUTE consortium. cDNAs were transferred into gateway-compatible lentiviral expression vectors: pLX305 dTAG vectors (Addgene #91797/8) or pRRL Strep-HA (described previously43, EF1a promotor driven expression) using LR recombination (ThermoFisher Scientific). […]
For immunoblotting, whole cell extracts were prepared using RIPA lysis buffer (25 mM Tris/HCl pH 7.6, 150 mM NaCl, 1% NP-40, 1% sodium deoxycholate, 0.1% SDS, EDTA-free protease inhibitor (Roche) and phosphatase inhibitors 2+3 (Sigma- Aldrich)). […] Protein extracts were quantified and normalized using the BCA assay (Thermo Scientific). […]
SLCs were ectopically expressed as fusions to a mutated FKBP domain, also known as the dTAG system. […] Each of the tested SLCs was stably expressed in HAP1 cells, and subcellular localization was assessed by immunofluorescence microscopy (FIG. 1B). […]

dTAG-HA SLCs = assay: dTAG-driven SLC degradation, statements across SLCs (temporal control, chemical rescue); format: cell-based, human; details: dTAG-tagged SLCs; FIGS. 5E and F
Protocol: (D)Chemical “rescue” of dTAG-driven degradation of SLCs. HAP1 cell lines expressing dTAG-HA SLC1A5 or dTAG-HA SLC38A9 were treated with 0.5 µM dTAG7 for 12 or 18 hours, respectively. These cells were also treated with chloroquine (CQ, 50 µM), bortezomib (bort., 1 µM), MG-132 (MG, 1 µM), MLN4924 (MLN, 1 µM), pomalidomide (poma., 10 µM), or bafilomycin A1 (bafi., 2.5 µM). SLC degradation was rescued by inhibiting CRL activity or the proteasome, but not by inhibiting the lysosome machinery.
Western blotting with antibodies against the HA-tag and the total protein mirrored the observed pattern.
(D) Chemical “rescue” of dTAG driven degradation. HAP1 cell lines expressing dTAGHA SLC2A3, 39A7, […], and MTCH2 were treated with 0.5 µM dTAG7 for 12 hours. A cell line expressing dTAG-HA SLC38A2 was treated with 0.5 µM dTAG7 for 18 hours. These cells were treated with MLN4924 (MLN, 1 µM), pomalidomide (poma., 10 µM), or bafilomycin A1 (bafi., 2.5 µM) to monitor the inhibition of degradation.
For immunoblotting, whole cell extracts were prepared using RIPA lysis buffer (25 mM Tris/HCl pH 7.6, 150 mM NaCl, 1% NP-40, 1% sodium deoxycholate, 0.1% SDS, EDTA-free protease inhibitor (Roche) and phosphatase inhibitors 2+3 (Sigma- Aldrich)). Cell extracts were incubated for 15 min on ice in 50 µL RIPA buffer. Lysates were cleared by centrifugation (20,000 g, 10 min, 4° C.). Protein extracts were quantified and normalized using the BCA assay (Thermo Scientific). Where indicated, cleared lysates where treated with the enzyme PNGase (NEB) to deglycosylate the proteins. Lämmli Sample Buffer 4x was added to protein extract samples without boiling. Cell lysates were run on SDS-polyacrylamide gel in tris-glycine running buffer and transferred to nitrocellulose membranes Amersham Protran 0.45 µm (GE Healthcare), according to standard methods. The membranes were incubated with the antibodies indicated below and visualized with horseradish peroxidase-conjugated secondary antibodies (described below) using the ECL Western blotting system (Thermo Scientific). The following antibodies were used: GAPDH (Santa Cruz, sc-365062), Actin (Cyoskeleton Inc., #AAN01), HA (Covance, cat #MMS-101R), HA (Cell Signaling, #3724), HA7-HRP (Sigma, H6533), HA (Roche, #11867423001), SLC9A1 (Santa Cruz, sc-136239), SLC2A1 (Cell Signaling, #12939), SLC38A1 (Cell Signaling, #36057). Secondary antibody for imaging goat anti-Rat IgG Alexa Fluor 488 (ThermoFisher, A11006). The following secondary antibodies were used for immunoblotting: goat anti-mouse HRP (115-035-003, Jackson ImmunoResearch) and goat anti-rabbit HRP (111-035-003, Jackson ImmunoResearch).
SLCs were ectopically expressed as fusions to a mutated FKBP domain, also known as the dTAG system. In brief, a dTAGed protein is amenable to degradation by specific chimeric degrader molecules (e.g. dTAG7/dTAG13) that simultaneously bind to the dTAG and the CRL4CRBN E3 ligase, inducing molecular proximity and ensuing degradation by the proteasome. Given that SLCs were expressed in all cellular compartments, the amenability of differentially located SLCs to targeted proteolysis was tested (FIG. 1A, upper graph). Each of the tested SLCs was stably expressed in HAP1 cells, and subcellular localization was assessed by immunofluorescence microscopy (FIG. 1B). In detail, SLCs located at the cell surface (SLC1A5, SLC38A1, SLC2A1, SLC2A3, SLC16A1, SLC4A4, SLC7A3), cell surface and vesicles (SLC38A2), lysosome (SLC38A9), Golgi (SLC35B2, SLC33A1), mitochondria (SLC25A26, SLC25A1, and MTCH2) and endoplasmic reticulum (SLC39A7, SLC30A9) were assayed. Cellular treatment with a specific degrader molecule (dTAG7 or dTAG13) led to identification of SLCs expressed at cell surface, endoplasmic reticulum and lysosome that were amenable to targeted degradation (FIGS. 1C, 5A). The dTAG could be placed on either N- or C-terminus of the SLC, if both face the cytoplasm (FIG. 5B), as exemplified by SLC2A3. […]

T1 sequence (Q8NBW4 with tags, fused parts or gaps): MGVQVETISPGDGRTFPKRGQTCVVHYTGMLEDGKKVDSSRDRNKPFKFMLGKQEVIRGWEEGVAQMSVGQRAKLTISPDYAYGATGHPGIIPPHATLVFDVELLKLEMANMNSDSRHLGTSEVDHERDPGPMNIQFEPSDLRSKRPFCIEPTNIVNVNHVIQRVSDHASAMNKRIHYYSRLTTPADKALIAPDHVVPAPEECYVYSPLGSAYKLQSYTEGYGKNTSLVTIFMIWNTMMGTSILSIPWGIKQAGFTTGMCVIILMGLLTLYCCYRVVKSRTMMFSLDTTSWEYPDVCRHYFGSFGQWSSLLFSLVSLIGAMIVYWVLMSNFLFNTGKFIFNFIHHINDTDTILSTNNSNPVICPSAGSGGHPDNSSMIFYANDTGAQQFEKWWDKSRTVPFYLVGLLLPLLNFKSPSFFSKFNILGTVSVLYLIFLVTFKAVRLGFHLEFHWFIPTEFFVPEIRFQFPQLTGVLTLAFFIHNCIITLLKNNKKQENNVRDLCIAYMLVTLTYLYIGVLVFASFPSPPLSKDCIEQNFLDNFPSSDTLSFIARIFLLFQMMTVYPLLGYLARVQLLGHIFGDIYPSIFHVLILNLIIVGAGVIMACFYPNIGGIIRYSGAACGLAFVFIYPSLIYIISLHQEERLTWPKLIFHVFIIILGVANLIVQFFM
T1 sequence (Q96SW2 whole entry): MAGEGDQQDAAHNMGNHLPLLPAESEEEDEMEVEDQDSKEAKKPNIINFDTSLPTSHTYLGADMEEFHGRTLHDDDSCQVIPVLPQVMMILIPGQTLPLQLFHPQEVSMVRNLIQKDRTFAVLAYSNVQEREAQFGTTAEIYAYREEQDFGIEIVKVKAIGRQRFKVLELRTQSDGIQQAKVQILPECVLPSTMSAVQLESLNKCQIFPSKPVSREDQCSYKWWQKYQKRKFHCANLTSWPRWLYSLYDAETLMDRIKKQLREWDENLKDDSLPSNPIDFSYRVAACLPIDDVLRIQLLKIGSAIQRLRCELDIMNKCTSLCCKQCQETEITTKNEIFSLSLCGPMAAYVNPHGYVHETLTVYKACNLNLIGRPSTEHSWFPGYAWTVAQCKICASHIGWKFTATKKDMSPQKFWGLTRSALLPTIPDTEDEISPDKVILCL
T1 sequence (Q16531 whole entry partner): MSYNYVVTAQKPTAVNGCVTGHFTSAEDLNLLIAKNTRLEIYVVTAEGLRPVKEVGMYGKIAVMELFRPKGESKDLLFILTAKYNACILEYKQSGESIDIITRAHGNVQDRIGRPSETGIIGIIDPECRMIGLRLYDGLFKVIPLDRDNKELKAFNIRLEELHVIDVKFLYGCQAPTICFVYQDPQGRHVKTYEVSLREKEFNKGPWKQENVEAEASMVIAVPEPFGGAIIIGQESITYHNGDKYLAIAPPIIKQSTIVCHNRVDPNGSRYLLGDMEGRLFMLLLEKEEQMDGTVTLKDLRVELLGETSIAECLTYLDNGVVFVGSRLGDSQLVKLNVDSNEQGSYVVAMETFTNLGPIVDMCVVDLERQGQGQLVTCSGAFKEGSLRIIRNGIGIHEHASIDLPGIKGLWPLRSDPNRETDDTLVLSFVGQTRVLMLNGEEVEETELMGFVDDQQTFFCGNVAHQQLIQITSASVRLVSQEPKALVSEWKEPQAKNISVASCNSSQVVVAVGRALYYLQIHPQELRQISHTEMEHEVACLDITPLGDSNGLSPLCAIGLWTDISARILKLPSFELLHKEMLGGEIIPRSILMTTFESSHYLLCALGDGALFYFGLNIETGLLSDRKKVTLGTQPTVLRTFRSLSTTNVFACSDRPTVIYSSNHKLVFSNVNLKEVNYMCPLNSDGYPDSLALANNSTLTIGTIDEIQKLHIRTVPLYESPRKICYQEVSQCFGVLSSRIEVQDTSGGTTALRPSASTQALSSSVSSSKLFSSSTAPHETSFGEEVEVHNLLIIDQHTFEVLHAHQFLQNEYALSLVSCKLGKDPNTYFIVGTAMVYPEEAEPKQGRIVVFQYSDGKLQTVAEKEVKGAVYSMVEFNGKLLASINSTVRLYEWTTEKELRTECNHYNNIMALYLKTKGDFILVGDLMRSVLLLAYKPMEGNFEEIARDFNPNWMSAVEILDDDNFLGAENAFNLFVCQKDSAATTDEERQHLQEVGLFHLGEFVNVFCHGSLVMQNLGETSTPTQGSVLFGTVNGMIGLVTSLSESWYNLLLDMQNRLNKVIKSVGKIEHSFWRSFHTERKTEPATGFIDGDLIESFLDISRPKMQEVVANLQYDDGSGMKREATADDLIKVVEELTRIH

reversibility of degradation of the target SLC (dTAG-HA SLC38A9; HAP1, 0.5 µM, 24, 48 or 72 hours)	Compound	temporal control of targeted SLC degradation (dTAG-HA SLCs)	degradation of the target SLC (dTAG-HA SLC38A9; HAP1, 0.5 µM, 16, 24 or 48 hours)	time for which target degradation is maintained (dTAG-HA SLCs)
reversible degradation	CC[C@H](C(=O)N1CCCC[C@H]1C(=O)O[C@H](CCc1ccc(OC)c(OC)c1)c1ccccc1OCC(=O)NCCCOCCOCCOCCCNC(=O)COc1cccc2c1C(=O)N(C1CCC(=O)NC1=O)C2=O)c1cc(OC)c(OC)c(OC)c1 (stereo partly shown) [dTAG7]	reversible degradation	–	–
–	CC[C@H](C(=O)N1CCCC[C@H]1C(=O)O[C@H](CCc1ccc(OC)c(OC)c1)c1ccccc1OCC(=O)NCCCCCCOc1cccc2c1C(=O)N(C1CCC(=O)NC1=O)C2=O)c1cc(OC)c(OC)c(OC)c1 (stereo partly shown) [dTAG13]	–	Near-complete degradation	at least 72 h
